Laboratory results: PubChem BioAssay AID602272 (Broad Institute, 2012)
Activity calls are given as the source filed them.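 Rule for the calls: active = every repeat run shows inhibition with half-maximal dose at most twice the top dose tested; inconclusive = repeat runs disagree on the call; inactive = every repeat run inactive.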

Molecular target: Glycogen synthase kinase-3 beta (Homo sapiens) (UniProt P49841)
Experiment: human GSK3B enzyme activity inhibitors – biochemical, ADP-Glo luminescence, GST-GSK3beta, dry powder, selectivity assay for CDK5 tau phosphorylation inhibitor project, dose response (AID 602272)
Conditions: recombinant GST-GSK3beta, 60 min; for activity change, negative = inhibition: at 30 µM (top of the series)

Glycogen synthase kinase-3 beta (Homo sapiens), sequence (P49841 whole entry, looked up): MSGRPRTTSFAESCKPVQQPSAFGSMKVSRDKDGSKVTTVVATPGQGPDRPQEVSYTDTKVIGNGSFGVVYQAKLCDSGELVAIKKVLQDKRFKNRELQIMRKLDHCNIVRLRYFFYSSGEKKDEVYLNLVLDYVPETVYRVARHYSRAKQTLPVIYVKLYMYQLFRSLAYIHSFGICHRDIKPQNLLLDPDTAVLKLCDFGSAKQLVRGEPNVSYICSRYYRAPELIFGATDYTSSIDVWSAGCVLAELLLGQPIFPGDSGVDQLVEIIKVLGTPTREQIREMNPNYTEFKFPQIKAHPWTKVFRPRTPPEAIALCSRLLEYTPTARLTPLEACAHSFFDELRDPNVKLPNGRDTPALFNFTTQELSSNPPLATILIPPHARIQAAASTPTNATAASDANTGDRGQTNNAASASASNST

Row | activity change, negative = inhibition | AC50 [µM] | SMILES
1 | inactive | – | O=C(c1cccc(Cl)c1)N1CCN(c2ccccn2)CC1
2 | inactive | – | O=C(c1ccc(Cl)cc1)N1CCN(c2ccc(C(F)(F)F)cn2)CC1
3 | – | 18.9 | CC(C)(C)n1c(NC(=O)c2cccc(S(C)(=O)=O)c2)nc2ccccc21
4 | inactive | – | COCCC(=O)N1CCN(c2ccccn2)CC1
5 | inactive | – | N#Cc1cccnc1N1CCN(C(=O)c2ccc(Cl)cc2)CC1
6 | inactive | – | O=C(c1ccc(Cl)cc1)N1CCN(c2cccc(C(F)(F)F)n2)CC1
7 | inactive | – | CCCn1c(NC(=O)c2ccc(Cl)c(S(=O)(=O)N3CCCC3)c2)nc2ccccc21
8 | inactive | – | Cc1ccc(N2CCN(C(=O)c3ccc(Cl)cc3)CC2)nc1
9 | inactive | – | CCOc1cc(C(=O)N2CCN(c3ccccn3)CC2)cc(OCC)c1OCC
10 | inactive | – | O=C(c1ccccc1Cl)N1CCN(c2ccccn2)CC1
11 | inactive | – | N#Cc1ccc(N2CCN(C(=O)c3ccc(Cl)cc3)CC2)nc1
12 | inactive | – | O=C(c1ccc(F)cc1)N1CCN(c2ccccn2)CC1
13 | inactive | – | Cc1ccnc(N2CCN(C(=O)c3ccc(Cl)cc3)CC2)c1
14 | inactive | – | O=C(c1ccc(Cl)cc1)N1CCN(c2ccccn2)CC1
15 | inactive | – | CCCn1c(NC(=O)c2ccc(OC)c(S(=O)(=O)N3CCCC3)c2)nc2ccccc21
16 | inactive | – | COc1cc(C(=O)N2CCN(c3ccccn3)CC2)cc(OC)c1OC
17 | inactive | – | COc1ccnc(N2CCN(C(=O)c3ccc(Cl)cc3)CC2)c1

Row | activity change, negative = inhibition | AC50 [µM] | SMILES
18 | inactive | – | O=C(c1ccc(Cl)cc1)N1CCN(c2ncccc2C(F)(F)F)CC1
19 | inactive | – | CCCn1c(NC(=O)c2cccc(S(=O)(=O)N(C)C)c2)nc2ccccc21
20 | inactive | – | O=C(C1CCCCC1)N1CCN(c2ccccn2)CC1
21 | inactive | – | COc1cccnc1N1CCN(C(=O)c2ccc(Cl)cc2)CC1
22 | inactive | – | CCCn1c(NC(=O)c2cccc(S(=O)(=O)N(CC)CC)c2)nc2ccccc21
23 | inactive | – | CCCCC(=O)N1CCN(c2ccccn2)CC1
24 | inactive | – | N#Cc1ccc(C(=O)N2CCN(c3ccccn3)CC2)cc1
25 | inactive | – | CCn1c(NC(=O)c2cccc(S(=O)(=O)NC)c2)nc2ccccc21
26 | inactive | – | O=C(c1ccccc1)N1CCN(c2ccccn2)CC1
27 | inactive | – | CC(C)C(=O)N1CCN(c2ccccn2)CC1
28 | inactive | – | COc1cccc(C(=O)N2CCN(c3ccccn3)CC2)c1
29 | inactive | – | COc1ccc(C(=O)N2CCN(c3ccccn3)CC2)cc1
30 | inactive | – | Cc1ccc(C(=O)N2CCN(c3ccccn3)CC2)cc1
31 | inactive | – | CCCn1c(NC(=O)c2cccc(S(=O)(=O)N3CCCCC3)c2)nc2ccccc21
32 | inactive | – | COc1cc(C(=O)N2CCN(c3ccccc3)CC2)cc(OC)c1OC
33 | inactive | – | Cc1cccc(N2CCN(C(=O)c3ccc(Cl)cc3)CC2)n1

Row | SMILES | activity change, negative = inhibition | AC50 [µM]
34 | c1ccc(N2CCNCC2)nc1 | inactive | –
